Experimental findings from US12391683B2, “Therapeutic compounds and methods” (Actio Biosciences, Inc., priority 2022, dated 2025) are described below.

This assay concerns the target T1, TRPC3 channels (Homo sapiens, UniProt Q13507).
T1 construct: expressed in transfected cells; host or cells: HEK293
T1 sequence (Q13507 1-921): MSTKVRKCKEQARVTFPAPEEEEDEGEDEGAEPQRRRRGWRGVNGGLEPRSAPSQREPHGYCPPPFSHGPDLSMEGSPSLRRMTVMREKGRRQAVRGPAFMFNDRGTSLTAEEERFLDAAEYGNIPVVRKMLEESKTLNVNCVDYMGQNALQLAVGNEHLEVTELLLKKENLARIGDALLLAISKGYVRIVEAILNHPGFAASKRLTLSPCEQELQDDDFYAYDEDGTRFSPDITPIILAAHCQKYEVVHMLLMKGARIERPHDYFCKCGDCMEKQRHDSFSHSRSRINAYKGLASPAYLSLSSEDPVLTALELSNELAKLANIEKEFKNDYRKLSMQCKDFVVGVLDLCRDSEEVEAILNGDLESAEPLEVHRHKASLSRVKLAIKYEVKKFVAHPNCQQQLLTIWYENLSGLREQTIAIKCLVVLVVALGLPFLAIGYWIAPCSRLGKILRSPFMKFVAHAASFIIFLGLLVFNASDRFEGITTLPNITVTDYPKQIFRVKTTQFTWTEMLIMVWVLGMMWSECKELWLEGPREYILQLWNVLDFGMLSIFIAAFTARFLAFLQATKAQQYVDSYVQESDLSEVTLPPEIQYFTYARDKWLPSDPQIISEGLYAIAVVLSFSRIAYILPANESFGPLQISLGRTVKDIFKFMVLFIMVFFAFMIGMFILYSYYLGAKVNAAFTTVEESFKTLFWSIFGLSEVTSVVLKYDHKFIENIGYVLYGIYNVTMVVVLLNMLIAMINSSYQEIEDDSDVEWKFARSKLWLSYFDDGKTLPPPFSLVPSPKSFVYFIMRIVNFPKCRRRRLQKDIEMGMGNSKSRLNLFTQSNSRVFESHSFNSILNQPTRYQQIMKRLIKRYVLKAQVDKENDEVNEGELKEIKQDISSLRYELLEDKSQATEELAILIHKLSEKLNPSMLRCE
Put plainly: TRP Family FLIPR Assay, TRPC3. The class given is cell-based. Particulars: HEK293 cells. The protocol:
The compound of Example 5 was tested for selectivity against a panel of Human TRP family ion channels in a TRP Family FLIPR Assay as described below. • 1. TRPC3 channels (human TRPC3 variant 1 gene, expressed in HEK293 cells). • 2. TRPC4 channels (human TRPC4 gene, expressed in HEK293 cells). • 3. TRPC5 channels (human TRPC5 gene, expressed in HEK293 cells). • 4. TRPC6 channels (human TRPC6 gene, expressed in HEK293 cells). • 5. TRPM2 channels (human TRPM2 gene, transiently expressed in HEK293 cells). • 6. TRPM3 channels (human TRPM3 gene, transiently expressed in HEK293 cells). • 7. TRPM4 channels (human TRPM4 gene, expressed in CHO cells). • 8. […]
Data acquisition was performed via the FLIPR Control software supplied with the FLIPR System (MDS-AT) and data was analyzed using Microsoft Excel (Microsoft Corp., Redmond, WA) or GraphPad Prism. […]
[formula] where Base is the response at low concentrations of test article, Max is the maximum response at high concentrations, xhalf the EC50, or IC50, the concentration of test article producing either half-maximal activation or inhibition, and rate is the Hill coefficient. […] No assumptions about the fit parameters was made; the fit parameters were determined by the algorithm.
The effect of each test article was evaluated at eight (8) concentrations: 0.003, 0.01, 0.03, 0.1, 0.3, 1, 3 and 10 μM, n≤4 wells/concentration). […]

Molecules are shown by their SMILES. Bounds are passed on as bounds.

As for `CC(C)(O)c1cnc(N2C[C@@]3(CC[C@@H](F)[C@](C)(Cn4cnc5ccc(C#N)cc54)C3)OC2=O)cn1` (single isomer, unassigned) [Example 5], the EC50 (agonist mode, vs EMAX of GSK1702934A 30 μM, read-out: EC50 hTRPC3) is over 10 µM. Besides, the IC50 (antagonist mode, activated with 15 μM GSK1702934A, 0.003-10 μM, read-out: IC50 hTRPC3) is over 10 µM.

The EC50 is the concentration that produces a half-maximal response. A word on the IC50: it is the concentration that inhibits the measured activity by half.
